Data taken from patent US20110195911A1, “SYNTHETIC ANALOGS OF THE JUXTAMEMBRANE DOMAIN OF IGF1R AND USES THEREOF” (THE UNITED STATES OF AMERICA,AS REPRESENTED BY THE …, priority 2008, published 2011).
Where a SMILES comes first, the peptide text is derived from it. The star is where a group is joined. Palmitoyl = CCCCCCCCCCCCCCCC(=O)*

System: MCF-7 breast cancer cells
Assay: MTT cell toxicity assay in MCF-7 breast cancer cells
Assay type: cell-based
Conditions: for GI50 / TGI / growth inhibition / potency in MCF-7 cells (in words): MCF-7 cells, MTT; for GI50 / TGI: final 0.5% FBS, two days with compound; for TGI: concentration of total growth inhibition (cytostatic); for growth inhibition / potency in MCF-7 cells (in words): comparison with related peptides
Method: Cell Toxicity Assays: MCF-7 (breast cancer), T47D (breast cancer), Colo 205 (colon cancer), JM-1 (rat hepatoma), Sk Me1-2 (melanoma), PLC (human hepatoma), and HepG2 (human hepatoma) cells were obtained from American Type Cell Culture Collection. MCF-7 cells were grown in RPMI medium supplemented with 10% Fetal Bovine Serum. The rest of the cell lines were grown in DMEM medium supplemented with 10% Fetal Bovine Serum.
MTT 43-(4,5-Dimethylthiazol-2-yl)-2,5-diphenyltetrazolium) cell assay was performed using MCF-7 breast cancer cells. For the assay, cells were seeded into 96 well plates in medium containing 1% Fetal Bovine Serum and 100 μL of a cell suspension containing 5000 cells per well. Wells containing medium-only, and wells containing untreated cells, served as controls.
Seeded cells were allowed to attach and grow in the wells for 24 hours. A 5 mM stock solution of each peptide was made by dissolving approximately 1 mg of peptide in appropriate amount of DMSO. 2 mL dilutions were used to make 0.2 μM, 1.0 μM, 5.0 μM, and 10.0 μM concentration solutions of the compounds in serum-free medium. 100 μl, of the resulting 2× solutions were added to the corresponding wells to provide a final FBS concentration of 0.5% and 0.1 μM, 0.5 μM, 2.5 μM, and 5.0 μM dilutions of inhibitors. The cells were incubated with test compounds for two days. The control wells were given 100 μL of medium to ensure maximum similarity to the test wells so that all of the wells had 200 μL of medium during the growth period. An individual plate was made for Time Zero, to which the dye was added at the time of addition of compounds.
An alternative potency assay was used to test compounds in MCF-7 (breast cancer), T47D (breast cancer), Colo 205 (colon cancer), JM-1 (rat hepatoma), Sk MeI-2 (melanoma), PLC (human hepatoma), and HepG2 (human hepatoma) cells. Cells were suspended at a concentration of approximately 5000 cells per 100 μL of suspension in a 5% FBS RPMI medium. The cells were seeded into 96-count wells and incubated over night. After one day's incubation, the 5% FBS medium was aspirated and replaced with 100 μL of no serum RPMI medium containing 1 mg Bovine Serum Albumin (BSA) per 1 mL RPMI. Various concentrations of the test compounds were prepared by dilution in no-serum medium containing 1 mg BSA/mL. 75 μL of the test compound solutions were added to the wells, and the cells were allowed to incubate for 15-20 minutes, after which time 25 μL of human recombinant IGF-1 (Peprotech) solution was added to the wells to attain final concentrations of 10 ng IGF-1/mL medium. The control wells were given 175 μL of no-serum medium in addition to 25 μL of IGF-1 solution. An individual plate was made for time zero, in which the medium was also aspirated and replaced with 175 μL of no-serum medium and 25 μL of IGF-1. 15 μL of MTT dye was added and let incubate for 4 hours, after which time a stop stop solubilization solution was added. The stop solution lysed the cells and released the dye reduced by the remaining living cells. Absorbance of the wells at 544 nm was determined by a FLUOstar/POLARstar Galaxy (BMG Lab Technologies GmbH) microplate reader. The activity was calculated from the data using the formula: 100×[(T−T0)/(C−T0)] for T>T0 and 100×[(T−T0)/T0] for T<T0, wherein T0 corresponds to cell density at the time of drug addition, “T” is the optical density of the test well after a 48-h period of exposure to test drug, and “C” is the control optical density. The GI50 measures the growth inhibitory power of the test agent, and is defined as the concentration of test drug where 100×(T−T0)/(C−T0)=50. The TGI is the concentration of test drug where 100×(T−T0)/(C−T0)=0. Thus, the TGI signifies a cytostatic effect.

| Compound | GI50 | TGI | growth inhibition / potency in MCF-7 cells (in words) | improvement of potency (MCF-7, N-terminal truncation, relative to peptide 12/3) |
| --- | --- | --- | --- | --- |
| CCCCCCCCCCCCCCCC(=O)N[C@@H](CO)C(=O)N[C@@H](CCCNC(=N)N)C(=O)N[C@@H](CC(C)C)C(=O)NCC(=O)N[C@@H](CC(N)=O)C(=O)NCC(=O)N[C@H](C(=O)N[C@@H](CC(C)C)C(=O)N[C@@H](Cc1ccc(O)cc1)C(N)=O)C(C)C [Peptide 19, Pal-SRLGNGVLY-NH2] (Palmitoyl-SRLGNGVLY-NH2) | 150 ± 50 nM | 2000 ± 100 nM | gradual reduction in potency | – |
| CCCCCCCCCCCCCCCC(=O)N[C@@H](Cc1c[nH]cn1)C(=O)N[C@@H](CCCNC(=N)N)C(=O)N[C@@H](CCCCN)C(=O)N[C@@H](CCCNC(=N)N)C(=O)N[C@@H](CC(N)=O)C(=O)N[C@@H](CC(N)=O)C(=O)N[C@@H](CO)C(=O)N[C@@H](CCCNC(=N)N)C(=O)N[C@@H](CC(C)C)C(=O)NCC(=O)N[C@@H](CC(N)=O)C(=O)NCC(=O)N[C@H](C(=O)N[C@@H](CC(C)C)C(=O)N[C@@H](Cc1ccc(O)cc1)C(=O)N[C@@H](C)C(N)=O)C(C)C [Peptide 8, Pal-HRKRNNSRLGNGVLYA-NH2] (Palmitoyl-HRKRNNSRLGNGVLYA-NH2) | 1400 ± 100 nM | >5000 nM | – | – |
| CCCCCCCCCCCCCCCC(=O)N[C@@H](CCCNC(=N)N)C(=O)N[C@@H](CC(N)=O)C(=O)N[C@@H](CC(N)=O)C(=O)N[C@@H](CO)C(=O)N[C@@H](CCCNC(=N)N)C(=O)N[C@@H](CC(C)C)C(=O)NCC(=O)N[C@@H](CC(N)=O)C(=O)NCC(=O)N[C@H](C(=O)N[C@@H](CC(C)C)C(=O)N[C@@H](Cc1ccc(O)cc1)C(=O)N[C@@H](C)C(=O)N[C@@H](CO)C(=O)N[C@H](C(=O)N[C@@H](CC(N)=O)C(N)=O)C(C)C)C(C)C [Peptide 14, Pal-RNNSRLGNGVLYASVN-NH2] (Palmitoyl-RNNSRLGNGVLYASVN-NH2) | 100 ± 4 nM | 400 ± 20 nM | – | more than ten-fold |
| CCCCCCCCCCCCCCCC(=O)N[C@@H](CC(N)=O)C(=O)N[C@@H](CO)C(=O)N[C@@H](CCCNC(=N)N)C(=O)N[C@@H](CC(C)C)C(=O)NCC(=O)N[C@@H](CC(N)=O)C(=O)NCC(=O)N[C@H](C(=O)N[C@@H](CC(C)C)C(=O)N[C@@H](Cc1ccc(O)cc1)C(N)=O)C(C)C [Peptide 17, Pal-NSRLGNGVLY-NH2] (Palmitoyl-NSRLGNGVLY-NH2) | 200 ± 10 nM | 1500 ± 100 nM | gradual reduction in potency | – |
| CCCCCCCCCCCCCCCC(=O)N[C@@H](Cc1c[nH]cn1)C(=O)N[C@@H](CCCNC(=N)N)C(=O)N[C@@H](CCCCN)C(=O)N[C@@H](CCCNC(=N)N)C(=O)N[C@@H](CC(N)=O)C(=O)N[C@@H](CC(N)=O)C(=O)N[C@@H](CO)C(=O)N[C@@H](CCCNC(=N)N)C(=O)N[C@@H](CC(C)C)C(=O)NCC(=O)N[C@@H](CC(N)=O)C(=O)NCC(=O)N[C@H](C(=O)N[C@@H](CC(C)C)C(=O)N[C@@H](Cc1ccc(O)cc1)C(=O)N[C@@H](C)C(=O)N[C@@H](CO)C(=O)N[C@H](C(=O)N[C@@H](CC(N)=O)C(=O)N1CCC[C@H]1C(=O)N[C@@H](CCC(=O)O)C(=O)N[C@@H](Cc1ccc(O)cc1)C(=O)N[C@@H](Cc1ccccc1)C(=O)N[C@@H](CO)C(=O)N[C@@H](C)C(=O)N[C@@H](C)C(N)=O)C(C)C)C(C)C [Peptide 4] (Palmitoyl-HRKRNNSRLGNGVLYASVNPEYFSAA-NH2) | 1000 ± 50 nM | >5000 nM | – | – |
| CCCCCCCCCCCCCCCC(=O)N[C@@H](CCCNC(=N)N)C(=O)N[C@@H](CC(N)=O)C(=O)N[C@@H](CC(N)=O)C(=O)N[C@@H](CO)C(=O)N[C@@H](CCCNC(=N)N)C(=O)N[C@@H](CC(C)C)C(=O)NCC(=O)N[C@@H](CC(N)=O)C(=O)NCC(=O)N[C@H](C(=O)N[C@@H](CC(C)C)C(=O)N[C@@H](Cc1ccc(O)cc1)C(N)=O)C(C)C [Peptide 16, Pal-RNNSRLGNGVLY-NH2] (Palmitoyl-RNNSRLGNGVLY-NH2) | 70 ± 5 nM | 500 ± 20 nM | most potent derivative | – |
| CCCCCCCCCCCCCCCC(=O)N[C@@H](CCCCN)C(=O)N[C@@H](CCCNC(=N)N)C(=O)N[C@@H](CC(N)=O)C(=O)N[C@@H](CC(N)=O)C(=O)N[C@@H](CO)C(=O)N[C@@H](CCCNC(=N)N)C(=O)N[C@@H](CC(C)C)C(=O)NCC(=O)N[C@@H](CC(N)=O)C(=O)NCC(=O)N[C@H](C(=O)N[C@@H](CC(C)C)C(=O)N[C@@H](Cc1ccc(O)cc1)C(N)=O)C(C)C [Peptide 27, Pal-KRNNSRLGNGVLY-NH2] (Palmitoyl-KRNNSRLGNGVLY-NH2) | 1100 ± 60 nM | 2500 ± 500 nM | – | – |
| CCCCCCCCCCCCCCCC(=O)N[C@@H](Cc1c[nH]cn1)C(=O)N[C@@H](CCCNC(=N)N)C(=O)N[C@@H](CCCCN)C(=O)N[C@@H](CCCNC(=N)N)C(=O)N[C@@H](CC(N)=O)C(=O)N[C@@H](CC(N)=O)C(=O)N[C@@H](CO)C(=O)N[C@@H](CCCNC(=N)N)C(=O)N[C@@H](CC(C)C)C(=O)NCC(=O)N[C@@H](CC(N)=O)C(=O)NCC(=O)N[C@H](C(=O)N[C@@H](CC(C)C)C(N)=O)C(C)C [Peptide 10, Pal-HRKRNNSRLGNGVL-NH2] (Palmitoyl-HRKRNNSRLGNGVL-NH2) | 1800 ± 100 nM | >5000 nM | – | – |
| CCCCCCCCCCCCCCCC(=O)N[C@@H](Cc1c[nH]cn1)C(=O)N[C@@H](CCCNC(=N)N)C(=O)N[C@@H](CCCCN)C(=O)N[C@@H](CCCNC(=N)N)C(=O)N[C@@H](CC(N)=O)C(=O)N[C@@H](CC(N)=O)C(=O)N[C@@H](CO)C(=O)N[C@@H](CCCNC(=N)N)C(=O)N[C@@H](CC(C)C)C(=O)NCC(N)=O [Peptide 2, Pal-HRKRNNSRLG-NH2] (Palmitoyl-HRKRNNSRLG-NH2) | 1300 ± 50 nM | >5000 nM | – | – |
| CCCCCCCCCCCCCCCC(=O)N[C@@H](Cc1c[nH]cn1)C(=O)N[C@@H](CCCNC(=N)N)C(=O)N[C@@H](CCCCN)C(=O)N[C@@H](CCCNC(=N)N)C(=O)N[C@@H](CC(N)=O)C(=O)N[C@@H](CC(N)=O)C(=O)N[C@@H](CO)C(=O)N[C@@H](CCCNC(=N)N)C(=O)N[C@@H](CC(C)C)C(=O)NCC(=O)N[C@@H](CC(N)=O)C(=O)NCC(=O)N[C@H](C(=O)N[C@@H](CC(C)C)C(=O)N[C@@H](Cc1ccc(O)cc1)C(=O)N[C@@H](C)C(=O)N[C@@H](CO)C(N)=O)C(C)C [Peptide 7, Pal-HRKRNNSRLGNGVLYAS-NH2] (Palmitoyl-HRKRNNSRLGNGVLYAS-NH2) | 1450 ± 100 nM | 4100 ± 300 nM | – | – |
| CCCCCCCCCCCCCCCC(=O)N[C@H](C(=O)N[C@@H](Cc1c[nH]cn1)C(=O)N[C@@H](CCCNC(=N)N)C(=O)N[C@@H](CCCCN)C(=O)N[C@@H](CCCNC(=N)N)C(=O)N[C@@H](CC(N)=O)C(=O)N[C@@H](CC(N)=O)C(=O)N[C@@H](CO)C(=O)N[C@@H](CCCNC(=N)N)C(=O)N[C@@H](CC(C)C)C(=O)NCC(=O)N[C@@H](CC(N)=O)C(=O)NCC(=O)N[C@H](C(=O)N[C@@H](CC(C)C)C(=O)N[C@@H](Cc1ccc(O)cc1)C(=O)N[C@@H](C)C(=O)N[C@@H](CO)C(=O)N[C@H](C(N)=O)C(C)C)C(C)C)C(C)C [Peptide 6, Pal-VHRKRNNSRLGNGVLYASV-NH2] (Palmitoyl-VHRKRNNSRLGNGVLYASV-NH2) | 250 ± 30 nM | 1050 ± 100 nM | – | – |
